Values quoted from earlier work, collected in patent US7816544B2, “Synthesis of rocaglamide natural products via photochemical generation of oxidopyrylium species” (Trustees of Boston University, priority 2004, dated 2010).

Legend:
[1] = system: NF-κB; details: different mouse and human T cell lines; B. Baumann et al., J. Biol. Chem., 2002
[2] = system: human cancer cells; details: compared with Taxol; B. Y. Hwang et al., J. Org. Chem., 2004

Compound	inhibition of NF-κB activity / NF-κB-induced gene activation [1]	cytotoxic activity against human cancer cells [2]
COc1ccc([C@@]23Oc4cc(OC)cc(OC)c4[C@]2(O)[C@H](O)[C@H](C(=O)N(C)C)[C@H]3c2ccccc2)cc1 [Rocaglamide]	among the strongest inhibitors of NF-κB-induced gene activation known so far	–
COC(=O)[C@H]1[C@@H](O)[C@@]2(O)c3c(OC)cc(O[C@@H]4O[C@@H]([C@H](O)CO)CO[C@H]4OC)cc3O[C@@]2(c2ccc(OC)cc2)[C@@H]1c1ccccc1 [silvestrol 2, silvestrol]	–	comparable to the anticancer drug Taxol
